{"source": "patent US12077503B2", "about": "“Substituted cyclic amides and their use as herbicides” (FMC CORPORATION, priority 2015, dated 2024)", "type_in_all_cases": "in vivo", "key": {"[1]": {"tested_on": "ragweed (common ragweed, Ambrosia elatior)", "test": "Test A preemergence", "conditions": "Ambrosia artemisiifolia, pre-emergence, 240 h, 0 to 100 scale where 0 is no effect and 100 is complete control, read-out: Ragweed plant response rating", "method_in_brief": "(§1)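 Each rating is a visual injury score from 0 to 100 given about 10 d after treatment, judged against untreated controls kept alongside in the greenhouse. In loam soil–sand blend, seeds got a preemergence directed soil spray, while postemergence plants were 2 to 10 cm tall at spraying.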"}, "[2]": {"tested_on": "pigweed (Amaranthus retroflexus)", "test": "Test A preemergence", "conditions": "Amaranthus retroflexus, pre-emergence, 240 h, 0 to 100 scale where 0 is no effect and 100 is complete control, read-out: Pigweed plant response rating"}, "Kochia (Kochia scoparia) [3]": {"tested_on": "Kochia (Kochia scoparia)", "test": "Test A preemergence", "conditions": "Bassia scoparia, pre-emergence, 240 h, 0 to 100 scale where 0 is no effect and 100 is complete control, read-out: Kochia plant response rating", "method_in_brief": "as §1"}, "[4]": {"tested_on": "ryegrass, Italian (Italian ryegrass, Lolium multiflorum)", "test": "Test A preemergence", "conditions": "Lolium multiflorum, pre-emergence, 240 h, 0 to 100 scale where 0 is no effect and 100 is complete control, read-out: Ryegrass, Italian plant response rating", "method_in_brief": "as §1"}, "[5]": {"tested_on": "giant foxtail (Setaria faberii)", "test": "Test A preemergence", "conditions": "Setaria faberi, pre-emergence, 240 h, 0 to 100 scale where 0 is no effect and 100 is complete control, read-out: Foxtail, Giant plant response rating", "method_in_brief": "as §1"}, "[6]": {"tested_on": "barnyardgrass (Echinochloa crus-galli)", "test": "Test A preemergence", "conditions": "Echinochloa crus-galli, pre-emergence, 240 h, 0 to 100 scale where 0 is no effect and 100 is complete control, read-out: Barnyardgrass plant response rating", "method_in_brief": "as §1"}, "[7]": {"tested_on": "ragweed (common ragweed, Ambrosia elatior)", "test": "Test A postemergence", "conditions": "Ambrosia artemisiifolia, post-emergence, 240 h", "method_in_brief": "as §1"}, "[8]": {"tested_on": "pigweed (Amaranthus retroflexus)", "test": "Test A postemergence", "conditions": "Amaranthus retroflexus, post-emergence, 240 h", "method_in_brief": "as §1"}, "Kochia (Kochia scoparia) [9]": {"tested_on": "Kochia (Kochia scoparia)", "test": "Test A postemergence", "conditions": "Bassia scoparia, post-emergence, 240 h", "method_in_brief": "as §1"}, "[10]": {"tested_on": "wheat (Triticum aestivum)", "test": "Test A postemergence", "conditions": "Triticum aestivum, post-emergence, 240 h", "method_in_brief": "as §1"}, "[11]": {"tested_on": "ryegrass, Italian (Italian ryegrass, Lolium multiflorum)", "test": "Test A postemergence", "conditions": "Lolium multiflorum, post-emergence, 240 h", "method_in_brief": "as §1"}, "[12]": {"tested_on": "giant foxtail (Setaria faberii)", "test": "Test A postemergence", "conditions": "Setaria faberi, post-emergence, 240 h", "method_in_brief": "as §1"}, "[13]": {"tested_on": "barnyardgrass (Echinochloa crus-galli)", "test": "Test A postemergence", "conditions": "Echinochloa crus-galli, post-emergence, 240 h", "method_in_brief": "as §1"}, "[14]": {"tested_on": "Galium (catchweed bedstraw, Galium aparine)", "test": "Test A postemergence", "conditions": "Galium, post-emergence, 240 h", "method_in_brief": "as §1"}, "corn (Zea mays)": {"tested_on": "corn (Zea mays)", "test": "Test A postemergence", "conditions": "Zea mays, post-emergence, 240 h", "method_in_brief": "as §1"}, "[15]": {"tested_on": "blackgrass (Alopecurus myosuroides)", "test": "Test A postemergence", "conditions": "Alopecurus myosuroides, post-emergence, 240 h", "method_in_brief": "as §1"}, "[16]": {"tested_on": "sedge, umbrella (small-flower umbrella sedge, Cyperus difformis)", "test": "Test B flooded paddy test", "conditions": "Cyperus difformis, 250 g ai/ha, Flood; 0 to 100 scale where 0 is no effect and 100 is complete control; read-out: Sedge, Umbrella plant response rating", "method_in_brief": "(§2)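 Response scored visually against untreated controls, 0 = no effect and 100 = complete control, 13–15 d after treatment in the greenhouse. Compounds added to paddy water held 3 cm above soil surface. Treatment given at 2-leaf stage.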"}, "[17]": {"tested_on": "barnyardgrass (Echinochloa crus-galli)", "test": "Test B flooded paddy test", "conditions": "Echinochloa crus-galli, 250 g ai/ha, Flood; 0 to 100 scale where 0 is no effect and 100 is complete control; read-out: Barnyardgrass plant response rating", "method_in_brief": "as §2"}, "rice (Oryra sativa)": {"tested_on": "rice (Oryra sativa)", "test": "Test B flooded paddy test", "conditions": "Oryza sativa, 250 g ai/ha, Flood; 0 to 100 scale where 0 is no effect and 100 is complete control; read-out: Rice plant response rating", "method_in_brief": "as §2"}, "[18]": {"tested_on": "ducksalad (Heteranthera limosa)", "test": "Test B flooded paddy test", "conditions": "Heteranthera limosa, 250 g ai/ha, Flood; 0 to 100 scale where 0 is no effect and 100 is complete control; read-out: Ducksalad plant response rating", "method_in_brief": "as §2"}, "[19]": {"conditions": "125 g ai/ha, preemergence, approx. 10 d"}}, "data": [{"smiles": "CN1C[C@H](c2ccc3ncccc3c2)[C@@H](C(=O)Nc2cccc(F)c2F)C1=O", "note": "[Compound 1167]", "values": [{"measurement": "pest or weed control at 31 g/ha", "setting": "[1]; 31 g ai/ha, Preemergence", "result": 0, "unit": "%"}, {"measurement": "pest or weed control at 125 g/ha", "setting": "[1]; [19]", "result": 0, "unit": "%"}, {"measurement": "pest or weed control at 31 g/ha", "setting": "[2]; 31 g ai/ha, Preemergence", "result": 0, "unit": "%"}, {"measurement": "pest or weed control at 125 g/ha", "setting": "[2]; [19]", "result": 0, "unit": "%"}, {"measurement": "pest or weed control at 31 g/ha", "setting": "Kochia (Kochia scoparia) [3]; 31 g ai/ha, Preemergence", "result": 0, "unit": "%"}, {"measurement": "pest or weed control at 125 g/ha", "setting": "Kochia (Kochia scoparia) [3]; [19]", "result": 0, "unit": "%"}, {"measurement": "pest or weed control at 31 g/ha", "setting": "[4]; 31 g ai/ha, Preemergence", "result": 0, "unit": "%"}, {"measurement": "pest or weed control at 125 g/ha", "setting": "[4]; [19]", "result": 0, "unit": "%"}, {"measurement": "pest or weed control at 31 g/ha", "setting": "[5]; 31 g ai/ha, Preemergence", "result": 0, "unit": "%"}, {"measurement": "pest or weed control at 125 g/ha", "setting": "[5]; [19]", "result": 50, "unit": "%"}, {"measurement": "pest or weed control at 31 g/ha", "setting": "[6]; 31 g ai/ha, Preemergence", "result": 0, "unit": "%"}, {"measurement": "pest or weed control at 125 g/ha", "setting": "[6]; [19]", "result": 0, "unit": "%"}, {"measurement": "pest or weed control at 125 g/ha", "setting": "[7]; 125 g ai/ha, postemergence, visual injury vs untreated controls after approx. 10 d, 0 = no effect, 100 = complete control, read-out: Ragweed plant response rating (0 to 100 scale)", "result": 0, "unit": "%"}, {"measurement": "pest or weed control at 31 g/ha", "setting": "[7]; Postemergence, 31 g ai/ha, visual injury after approx. 10 d, 0 to 100 scale, 0 no effect, 100 complete control, read-out: Plant response rating, Ragweed", "result": 0, "unit": "%"}, {"measurement": "pest or weed control at 125 g/ha", "setting": "[8]; 125 g ai/ha, postemergence, visual injury vs untreated controls after approx. 10 d, 0 = no effect, 100 = complete control, read-out: Pigweed plant response rating (0 to 100 scale)", "result": 0, "unit": "%"}, {"measurement": "pest or weed control at 31 g/ha", "setting": "[8]; Postemergence, 31 g ai/ha, visual injury after approx. 10 d, 0 to 100 scale, 0 no effect, 100 complete control, read-out: Plant response rating, Pigweed", "result": 0, "unit": "%"}, {"measurement": "pest or weed control at 125 g/ha", "setting": "Kochia (Kochia scoparia) [9]; 125 g ai/ha, postemergence, visual injury vs untreated controls after approx. 10 d, 0 = no effect, 100 = complete control, read-out: Kochia plant response rating (0 to 100 scale)", "result": 0, "unit": "%"}, {"measurement": "pest or weed control at 31 g/ha", "setting": "Kochia (Kochia scoparia) [9]; Postemergence, 31 g ai/ha, visual injury after approx. 10 d, 0 to 100 scale, 0 no effect, 100 complete control, read-out: Plant response rating, Kochia", "result": 0, "unit": "%"}, {"measurement": "plant injury at 125 g/ha", "setting": "[10]; 125 g ai/ha, postemergence, visual injury vs untreated controls after approx. 10 d, 0 = no effect, 100 = complete control, read-out: Wheat plant response rating (0 to 100 scale)", "result": 50, "unit": "%"}, {"measurement": "plant injury at 31 g/ha", "setting": "[10]; Postemergence, 31 g ai/ha, visual injury after approx. 10 d, 0 to 100 scale, 0 no effect, 100 complete control, read-out: Plant response rating, Wheat", "result": 0, "unit": "%"}, {"measurement": "pest or weed control at 125 g/ha", "setting": "[11]; 125 g ai/ha, postemergence, visual injury vs untreated controls after approx. 10 d, 0 = no effect, 100 = complete control, read-out: Ryegrass, Italian plant response rating (0 to 100 scale)", "result": 0, "unit": "%"}, {"measurement": "pest or weed control at 31 g/ha", "setting": "[11]; Postemergence, 31 g ai/ha, visual injury after approx. 10 d, 0 to 100 scale, 0 no effect, 100 complete control, read-out: Plant response rating, Ryegrass, Italian", "result": 0, "unit": "%"}, {"measurement": "pest or weed control at 125 g/ha", "setting": "[12]; 125 g ai/ha, postemergence, visual injury vs untreated controls after approx. 10 d, 0 = no effect, 100 = complete control, read-out: Foxtail, Giant plant response rating (0 to 100 scale)", "result": 30, "unit": "%"}, {"measurement": "pest or weed control at 31 g/ha", "setting": "[12]; Postemergence, 31 g ai/ha, visual injury after approx. 10 d, 0 to 100 scale, 0 no effect, 100 complete control, read-out: Plant response rating, Foxtail, Giant", "result": 0, "unit": "%"}, {"measurement": "pest or weed control at 125 g/ha", "setting": "[13]; 125 g ai/ha, postemergence, visual injury vs untreated controls after approx. 10 d, 0 = no effect, 100 = complete control, read-out: Barnyardgrass plant response rating (0 to 100 scale)", "result": 50, "unit": "%"}, {"measurement": "pest or weed control at 31 g/ha", "setting": "[13]; Postemergence, 31 g ai/ha, visual injury after approx. 10 d, 0 to 100 scale, 0 no effect, 100 complete control, read-out: Plant response rating, Barnyardgrass", "result": 0, "unit": "%"}, {"measurement": "pest or weed control at 125 g/ha", "setting": "[14]; 125 g ai/ha, postemergence, visual injury vs untreated controls after approx. 10 d, 0 = no effect, 100 = complete control, read-out: Galium plant response rating (0 to 100 scale)", "result": 20, "unit": "%"}, {"measurement": "pest or weed control at 31 g/ha", "setting": "[14]; Postemergence, 31 g ai/ha, visual injury after approx. 10 d, 0 to 100 scale, 0 no effect, 100 complete control, read-out: Plant response rating, Galium", "result": 0, "unit": "%"}, {"measurement": "plant injury at 125 g/ha", "setting": "corn (Zea mays); 125 g ai/ha, postemergence, visual injury vs untreated controls after approx. 10 d, 0 = no effect, 100 = complete control, read-out: Corn plant response rating (0 to 100 scale)", "result": 0, "unit": "%"}, {"measurement": "Corn plant response rating (crop injury, 0 = no effect, 100 = complete kill) at 31 g/ha", "setting": "corn (Zea mays); Postemergence, 31 g ai/ha, visual injury after approx. 10 d, 0 to 100 scale, 0 no effect, 100 complete control", "result": 0, "unit": "%"}, {"measurement": "pest or weed control at 125 g/ha", "setting": "[15]; 125 g ai/ha, postemergence, visual injury vs untreated controls after approx. 10 d, 0 = no effect, 100 = complete control, read-out: Blackgrass plant response rating (0 to 100 scale)", "result": 0, "unit": "%"}, {"measurement": "pest or weed control at 31 g/ha", "setting": "[15]; Postemergence, 31 g ai/ha, visual injury after approx. 10 d, 0 to 100 scale, 0 no effect, 100 complete control, read-out: Plant response rating, Blackgrass", "result": 0, "unit": "%"}, {"measurement": "pest or weed control at 250 g/ha", "setting": "[16]", "result": 0, "unit": "%"}, {"measurement": "pest or weed control at 250 g/ha", "setting": "[17]", "result": 0, "unit": "%"}, {"measurement": "pest or weed control at 250 g/ha", "setting": "rice (Oryra sativa)", "result": 0, "unit": "%"}, {"measurement": "pest or weed control at 250 g/ha", "setting": "[18]", "result": 0, "unit": "%"}]}]}
